Values quoted from earlier work as cited in PubChem BioAssay AID1259409 (Chemical Carcinogenesis Research Information System (CCRIS), 2018).

System: rodent chemically induced tumor inhibition, incidence and multiplicity
Assay: CCRIS tumor inhibitor studies

COc1cc2c(cc1OC)[C@]1(O)C(=O)c3ccc4c(c3O[C@@H]1CO2)C=CC(C)(C)O4
tumour outcome (control, treated, inhibition, significance) (Carcinogen: 7,12-DIMETHYLBENZ[A]ANTHRACENE, 57-97-6, Dose [Inhibitor]: 0, 85 NMOL 2/WK BEGINNING 1 WK POST CARCINOGEN DOSE (STUDY DURATION: 20 WK), Route [Inhibitor]: DERMAL, Species: MOUSE, Strain/Sex: ICR/FEMALE, Target Tissue: Type of Lesion: SKIN: PAPILLOMA, Dose [Carcinogen]: 390 NMOL, Promoter: 12-O-TETRADECANOYLPHORBOL-13-ACETATE, 16561-29-8): 100%, 40%, 60%, not calculated

CCS(=O)(=O)c1ccc(/C=C(\C)c2ccc3c(c2)C(C)(C)CCC3(C)C)cc1
tumour outcome (control, treated, inhibition, significance) (Carcinogen: 7,12-DIMETHYLBENZ[A]ANTHRACENE, 57-97-6, Dose [Inhibitor]: 0, 3 MG/KG/D IN FEED REDUCED AFTER 4 WK TO 2.2 MG/KG/D (STUDY DURATION: 13 WK), Route [Inhibitor]: ORAL, Species: RAT, Strain/Sex: SPRAGUE-DAWLEY/FEMALE, Target Tissue: Type of Lesion: MAMMARY GLAND: TUMOR, Dose [Carcinogen]: 15 MG IN ARACHIS OIL ONCE AT 50 D OF AGE, Promoter: NONE USED): 96%, 73%, 24%, not calculated

CCC(=O)Oc1ccc(NC(=O)\C=C(C)/C=C/C=C(C)/C=C/C2=C(C)CCCC2(C)C)cc1
tumour outcome (control, treated, inhibition, significance) (Carcinogen: L-AZASERINE, 115-02-6, Dose [Inhibitor]: 1 MMOL/KG DIET DAILY FOR 84 D FOLLOWED BY 0.5 MMOL/KG DIET FOR 276 D STARTING 1 WK AFTER COMPLETION OF CARCINOGEN TREATM, Route [Inhibitor]: ORAL, Species: RAT, Strain/Sex: WISTAR-LEWIS/FEMALE, Target Tissue: Type of Lesion: PANCREAS: ADENOMA, Dose [Carcinogen]: 10 MG/KG BW 1/WK FOR 15 WK, Promoter: NONE USED): 50%, 17%, 66%, not significant
tumour outcome (control, treated, inhibition, significance) (Carcinogen: L-AZASERINE, 115-02-6, Dose [Inhibitor]: 1 MMOL/KG DIET DAILY FOR 84 D FOLLOWED BY 0.5 MMOL/KG DIET FOR 276 D STARTING 1 WK AFTER COMPLETION OF CARCINOGEN TREATM, Route [Inhibitor]: ORAL, Species: RAT, Strain/Sex: WISTAR-LEWIS/FEMALE, Target Tissue: Type of Lesion: PANCREAS: CARCINOMA IN SITU, Dose [Carcinogen]: 10 MG/KG BW 1/WK FOR 15 WK, Promoter: NONE USED): 8%, 21%, -163%, not calculated
tumour outcome (control, treated, inhibition, significance) (Carcinogen: L-AZASERINE, 115-02-6, Dose [Inhibitor]: 1 MMOL/KG DIET DAILY FOR 84 D FOLLOWED BY 0.5 MMOL/KG DIET FOR 276 D STARTING 1 WK AFTER COMPLETION OF CARCINOGEN TREATM, Route [Inhibitor]: ORAL, Species: RAT, Strain/Sex: WISTAR-LEWIS/FEMALE, Target Tissue: Type of Lesion: PANCREAS: CARCINOMA, Dose [Carcinogen]: 10 MG/KG BW 1/WK FOR 15 WK, Promoter: NONE USED): 13%, 0%, 100%, not significant
tumour outcome (control, treated, inhibition, significance) (Carcinogen: L-AZASERINE, 115-02-6, Dose [Inhibitor]: 1 MMOL/KG DIET DAILY FOR 84 D FOLLOWED BY 0.5 MMOL/KG DIET FOR 276 D STARTING 1 WK AFTER COMPLETION OF CARCINOGEN TREATM, Route [Inhibitor]: ORAL, Species: RAT, Strain/Sex: WISTAR-LEWIS/FEMALE, Target Tissue: Type of Lesion: PANCREAS: NEOPLASM, Dose [Carcinogen]: 10 MG/KG BW 1/WK FOR 15 WK, Promoter: NONE USED): 71%, 38%, 46%, p<0.05
tumour outcome (control, treated, inhibition, significance) (Carcinogen: L-AZASERINE, 115-02-6, Dose [Inhibitor]: 1 MMOL/KG DIET DAILY FOR 84 D FOLLOWED BY 0.5 MMOL/KG DIET FOR 276 D STARTING 1 WK AFTER COMPLETION OF CARCINOGEN TREATM, Route [Inhibitor]: ORAL, Species: RAT, Strain/Sex: WISTAR-LEWIS/MALE, Target Tissue: Type of Lesion: PANCREAS: ADENOMA, Dose [Carcinogen]: 10 MG/KG BW 1/WK FOR 15 WK, Promoter: NONE USED): 25%, 29%, -16%, not significant
tumour outcome (control, treated, inhibition, significance) (Carcinogen: L-AZASERINE, 115-02-6, Dose [Inhibitor]: 1 MMOL/KG DIET DAILY FOR 84 D FOLLOWED BY 0.5 MMOL/KG DIET FOR 276 D STARTING 1 WK AFTER COMPLETION OF CARCINOGEN TREATM, Route [Inhibitor]: ORAL, Species: RAT, Strain/Sex: WISTAR-LEWIS/MALE, Target Tissue: Type of Lesion: PANCREAS: CARCINOMA IN SITU, Dose [Carcinogen]: 10 MG/KG BW 1/WK FOR 15 WK, Promoter: NONE USED): 29%, 42%, -45%, not significant
tumour outcome (control, treated, inhibition, significance) (Carcinogen: L-AZASERINE, 115-02-6, Dose [Inhibitor]: 1 MMOL/KG DIET DAILY FOR 84 D FOLLOWED BY 0.5 MMOL/KG DIET FOR 276 D STARTING 1 WK AFTER COMPLETION OF CARCINOGEN TREATM, Route [Inhibitor]: ORAL, Species: RAT, Strain/Sex: WISTAR-LEWIS/MALE, Target Tissue: Type of Lesion: PANCREAS: CARCINOMA, Dose [Carcinogen]: 10 MG/KG BW 1/WK FOR 15 WK, Promoter: NONE USED): 46%, 21%, 54%, p 0.06
tumour outcome (control, treated, inhibition, significance) (Carcinogen: L-AZASERINE, 115-02-6, Dose [Inhibitor]: 1 MMOL/KG DIET DAILY FOR 84 D FOLLOWED BY 0.5 MMOL/KG DIET FOR 276 D STARTING 1 WK AFTER COMPLETION OF CARCINOGEN TREATM, Route [Inhibitor]: ORAL, Species: RAT, Strain/Sex: WISTAR-LEWIS/MALE, Target Tissue: Type of Lesion: PANCREAS: NEOPLASM, Dose [Carcinogen]: 10 MG/KG BW 1/WK FOR 15 WK, Promoter: NONE USED): 100%, 92%, 8%, not significant
tumour outcome (control, treated, inhibition, significance) (Carcinogen: L-AZASERINE, 115-02-6, Dose [Inhibitor]: 2 MMOL/KG DIET FOR 44 D, 1.5 MMOL FOR 26 D, 1 MMOL FOR 56 D AND 0.75 MMOL FOR 192 D STARTING 1 WK AFTER COMPLETION OF CA, Route [Inhibitor]: ORAL, Species: RAT, Strain/Sex: WISTAR-LEWIS/FEMALE, Target Tissue: Type of Lesion: PANCREAS: ADENOMA, Dose [Carcinogen]: 10 MG/KG BW 1/WK FOR 15 WK, Promoter: NONE USED): 50%, 29%, 42%, not significant
tumour outcome (control, treated, inhibition, significance) (Carcinogen: L-AZASERINE, 115-02-6, Dose [Inhibitor]: 2 MMOL/KG DIET FOR 44 D, 1.5 MMOL FOR 26 D, 1 MMOL FOR 56 D AND 0.75 MMOL FOR 192 D STARTING 1 WK AFTER COMPLETION OF CA, Route [Inhibitor]: ORAL, Species: RAT, Strain/Sex: WISTAR-LEWIS/FEMALE, Target Tissue: Type of Lesion: PANCREAS: CARCINOMA IN SITU, Dose [Carcinogen]: 10 MG/KG BW 1/WK FOR 15 WK, Promoter: NONE USED): 8%, 4%, 50%, not significant
tumour outcome (control, treated, inhibition, significance) (Carcinogen: L-AZASERINE, 115-02-6, Dose [Inhibitor]: 2 MMOL/KG DIET FOR 44 D, 1.5 MMOL FOR 26 D, 1 MMOL FOR 56 D AND 0.75 MMOL FOR 192 D STARTING 1 WK AFTER COMPLETION OF CA, Route [Inhibitor]: ORAL, Species: RAT, Strain/Sex: WISTAR-LEWIS/FEMALE, Target Tissue: Type of Lesion: PANCREAS: CARCINOMA, Dose [Carcinogen]: 10 MG/KG BW 1/WK FOR 15 WK, Promoter: NONE USED): 13%, 4%, 70%, not significant
tumour outcome (control, treated, inhibition, significance) (Carcinogen: L-AZASERINE, 115-02-6, Dose [Inhibitor]: 2 MMOL/KG DIET FOR 44 D, 1.5 MMOL FOR 26 D, 1 MMOL FOR 56 D AND 0.75 MMOL FOR 192 D STARTING 1 WK AFTER COMPLETION OF CA, Route [Inhibitor]: ORAL, Species: RAT, Strain/Sex: WISTAR-LEWIS/FEMALE, Target Tissue: Type of Lesion: PANCREAS: NEOPLASM, Dose [Carcinogen]: 10 MG/KG BW 1/WK FOR 15 WK, Promoter: NONE USED): 71%, 38%, 46%, p<0.05
tumour outcome (control, treated, inhibition, significance) (Carcinogen: L-AZASERINE, 115-02-6, Dose [Inhibitor]: 2 MMOL/KG DIET FOR 44 D, 1.5 MMOL FOR 26 D, 1 MMOL FOR 56 D AND 0.75 MMOL FOR 192 D STARTING 1 WK AFTER COMPLETION OF CA, Route [Inhibitor]: ORAL, Species: RAT, Strain/Sex: WISTAR-LEWIS/MALE, Target Tissue: Type of Lesion: PANCREAS: ADENOMA, Dose [Carcinogen]: 10 MG/KG BW 1/WK FOR 15 WK, Promoter: NONE USED): 25%, 22%, 12%, not significant
tumour outcome (control, treated, inhibition, significance) (Carcinogen: L-AZASERINE, 115-02-6, Dose [Inhibitor]: 2 MMOL/KG DIET FOR 44 D, 1.5 MMOL FOR 26 D, 1 MMOL FOR 56 D AND 0.75 MMOL FOR 192 D STARTING 1 WK AFTER COMPLETION OF CA, Route [Inhibitor]: ORAL, Species: RAT, Strain/Sex: WISTAR-LEWIS/MALE, Target Tissue: Type of Lesion: PANCREAS: CARCINOMA IN SITU, Dose [Carcinogen]: 10 MG/KG BW 1/WK FOR 15 WK, Promoter: NONE USED): 29%, 43%, -48%, not significant
tumour outcome (control, treated, inhibition, significance) (Carcinogen: L-AZASERINE, 115-02-6, Dose [Inhibitor]: 2 MMOL/KG DIET FOR 44 D, 1.5 MMOL FOR 26 D, 1 MMOL FOR 56 D AND 0.75 MMOL FOR 192 D STARTING 1 WK AFTER COMPLETION OF CA, Route [Inhibitor]: ORAL, Species: RAT, Strain/Sex: WISTAR-LEWIS/MALE, Target Tissue: Type of Lesion: PANCREAS: CARCINOMA, Dose [Carcinogen]: 10 MG/KG BW 1/WK FOR 15 WK, Promoter: NONE USED): 46%, 13%, 72%, p<0.05
tumour outcome (control, treated, inhibition, significance) (Carcinogen: L-AZASERINE, 115-02-6, Dose [Inhibitor]: 2 MMOL/KG DIET FOR 44 D, 1.5 MMOL FOR 26 D, 1 MMOL FOR 56 D AND 0.75 MMOL FOR 192 D STARTING 1 WK AFTER COMPLETION OF CA, Route [Inhibitor]: ORAL, Species: RAT, Strain/Sex: WISTAR-LEWIS/MALE, Target Tissue: Type of Lesion: PANCREAS: NEOPLASM, Dose [Carcinogen]: 10 MG/KG BW 1/WK FOR 15 WK, Promoter: NONE USED): 100%, 78%, 22%, not significant
